Laboratory results published in patent US6423753B1, “Use of colchinol derivatives as vascular damaging agents” (priority 1997, dated 2002).
Where two headings read alike, the source gives them in different places.

Assays:
[1] = Maximum tolerated dose (no deaths in three animals); type: in vivo; details: for MTD: mouse, in vivo, other tubulin-binding agents, read-out: MTD (mg/kg body weight); for MTD mg/Kg body weight: maximum tolerated dose, no deaths in three animals
Excerpt: The phosphate compound was compared with the parent N-acetylcolchinol for the maximum tolerated dose (MTD) (no deaths in three animals), minimum effective dose (MED) measured by the fluorescent dye technique already described and the therapeutic window (MTD/MED).

[2] = test system: CaNT tumour; details: for MED (mg/kg body weight): other tubulin-binding agents, by fluorescent dye technique; for vascular-damaging effects: at Maximum Tolerated Dose (30 mg/kg), 30 mg/kg; for % decrease in vascular volume: administered at 50 mg/kg, fluorescent dye technique; for MED mg/Kg body weight: minimum effective dose by the fluorescent dye technique
[3] = test system: Subcutaneous CaNT tumours; experiment: Activity against tumour vasculature measured by radioactive tracer (86RbCl extraction, relative blood flow); type: in vivo, mice; details: dose of 125 mg/kg intraperitoneally
Protocol: Activity Against Tumour Vasculature Measured by Radioactive Tracer.
Subcutaneous CaNT tumours were initiated by injecting 0.05 ml of a crude tumour cell suspension, approximately 10^6 cells, under the skin overlying the rear dorsum of 12-16 week-old mice. The animals were selected for treatment after approximately 3-4 weeks, when their tumours reached a geometric mean diameter of 5.5-6.5 mm. Compounds were dissolved in sterile saline and injected intraperitoneally in a volume of 0.1 ml per 10 g body weight. Tumour perfusion was measured 6 hours after intraperitoneal administration in tumour, kidney, liver, skin muscle, gut and brain by the ^86RbCI extraction technique (Sapirstein, Amer J Physiol, 193, 161-168, 1958). Tissue radioactivity measured 1 minute after an intravenous injection of ^86RbCI was used to calculate relative blood flow as a proportion of cardiac output (Hill and Denekamp, Brit J Radiol, 55, 905-913, 1982). Five animals were used in control and treated groups. Results were expressed as a percentage of the blood flow in the corresponding tissues in vehicle treated animals.

[4] = compared with parent N-acetylcolchinol

Compound: COc1cc2c(c(OC)c1OC)-c1ccc(OC)c(=O)cc1[C@@H](NC(C)=O)CC2 [Colchicine, reference compound]
- MTD [1]: 5 mg/kg
- MED (mg/kg body weight) [2]: 2.5 mg/kg body weight

Compound: CC(=O)O[C@@]12CO[C@@H]1C[C@H](O)[C@@]1(C)C(=O)[C@H](O)C3=C(C)[C@@H](OC(=O)[C@H](O)[C@@H](NC(=O)OC(C)(C)C)c4ccccc4)C[C@@](O)([C@@H](OC(=O)c4ccccc4)[C@H]21)C3(C)C [Docetaxel, reference compound]
- MTD [1]: 30 mg/kg
- vascular-damaging effects [2]: No effect
- vascular-damaging effects ([2]; listed as docetaxel): no vascular-damaging effects
- MED (mg/kg body weight) [2]: > 30 mg/kg body weight

Compound: COc1cc2c(c(OC)c1OC)-c1ccc(OP(=O)(O)O)cc1C(NC(C)=O)CC2 (stereo not drawn) [Example 1, N-Acetylcolchinol-O-phosphate]
- decrease in tumour blood flow ([3]; measured 6 hours after administration, relative to vehicle treated animals): 65%
- reduction in blood flow in skin, muscle, liver, kidney, gut or heart ([3]; normal tissues): no significant reduction
- MTD mg/Kg body weight [1]: 750 mg/Kg body weight
- % decrease in vascular volume [2]: 89%
- MED mg/Kg body weight [2]: 50 mg/Kg body weight
- solubility [4]: greater solubility

Compound: CCNC1CCc2cc(OC)c(OC)c(OC)c2-c2ccc(O)cc21 (stereo not drawn) [Example 2, N-Ethylcolchinol]
- % decrease in vascular volume [2]: 38%

Compound: COc1cc2c(c(OC)c1OC)-c1ccc(O)cc1C(NC(=O)OCc1ccccc1)CC2 (stereo not drawn) [Example 3, N-Benzyloxvcarbonylcolchinol]
- % decrease in vascular volume [2]: 43%

Compound: COc1cc2c(c(OC)c1OC)-c1ccc(O)cc1C(NC(=O)Nc1ccccc1)CC2 (stereo not drawn) [Example 4, N-(Phenylcarbamoyl) colchinol]
- % decrease in vascular volume [2]: 37%

Compound: COc1cc2c(c(OC)c1OC)-c1ccc(O)cc1C(NS(C)(=O)=O)CC2 (stereo not drawn) [Example 5, N-Mesylcolchinol]
- % decrease in vascular volume [2]: 38%

Compound: COc1cc2c(c(OC)c1OC)-c1ccc(O)cc1C(NS(=O)(=O)N(C)C)CC2 (stereo not drawn) [Example 6, N-Dimethylsulphamoylcolchinol]
- % decrease in vascular volume [2]: 30%

Compound: COC(=O)COc1ccc2c(c1)C(NC(C)=O)CCc1cc(OC)c(OC)c(OC)c1-2 (stereo not drawn) [Example 7, N-Acetyl-O-methoxycarbonylmethylcolchinol]
- % decrease in vascular volume [2]: 12%

Compound: COc1cc2c(c(OC)c1OC)-c1ccc(OCC(=O)O)cc1C(NC(C)=O)CC2 (stereo not drawn) [Example 8, N-Acetyl-O-carboxymethylcolchinol]
- % decrease in vascular volume [2]: 49%

Compound: COc1cc2c(c(OC)c1OC)-c1ccc(OC3CCCC3)cc1C(NC(C)=O)CC2 (stereo not drawn) [Example 9, N-Acetyl-O-cyclopentylcolchinol]
- % decrease in vascular volume [2]: 59%

Compound: COc1cc2c(c(OC)c1OC)-c1cc([N+](=O)[O-])c(O)cc1C(NC(C)=O)CC2 (stereo not drawn) [Example 10, N-Acetyl-10-nitrocolchinol]
- % decrease in vascular volume [2]: 28%

Compound: COc1cc2c(c(OC)c1OC)-c1ccc(O)cc1[C@@H](NC(C)=O)CC2 [N-acetylcolchinol, reference compound]
- MTD mg/Kg body weight [1]: 125 mg/Kg body weight
- % decrease in vascular volume [2]: 78%
- MED mg/Kg body weight [2]: 30 mg/Kg body weight
